Entries after “also recorded” stand apart in the source; their conditions may differ.
Key:
[1] = system: astrocytes of the hippocampus (stratum radiatum), TRPA1 channel; test: Acute application on acute hippocampal slices: astrocyte calcium imaging; assay type: cell-based, mouse; settings: 40 μM, APP/PS1-21 mice 1-month old
Method: Coronal sections of the hippocampus (thickness 300 μm) were prepared from APP/PS1-21 transgenic mice (1 month and 3 months old) or from WT mice from the same litter. The mice were sacrificed by decerebration and decapitation. The brain was quickly removed and sectioned in ice-cold ACSF containing (in mM) : 2.5 KCl, 7 MgCl2, 0.5 CaCl2, 1.2 NaHPO4, 25 NaHCO3, 11D-glucose and 234 sucrose bubbled with 95% of O2 and 5% of CO2 with a VT1200S vibratome (Leica, Germany). The sections containing the hippocampus were placed in ACSF containing (in mM) : 126 NaCl, 2.5 KCl, 1.2 MgCl2, 2.5 CaCl2, 1.2 NaH2PO4 bubbled with 95% of O2 and 5% of CO2 and supplemented with 1 mM of sodium pyruvate at room temperature for a recovery period.
300 μm coronal sections were transferred to a chamber allowing constant perfusion with ACSF at room temperature, bubbling with 95% of O2 and 5% of CO2 on the upright microscope tray (Eclipse E600 FN, Nikon, France) equipped with a 60× (NA 1.0) water immersion objective and infrared interference contrast optical systems with a CCD camera (Optronis VX45, Germany). […] The signals were amplified by Axopatch 200B, sampled by a Digidata 1440A interface and recorded by the pClamp8 software (Molecular Devices, USA). […] The input resistance was calculated by measuring the current in response to a 10 mV pulse of 80 ms duration near the end of the voltage command.

[2] = system: CA1 pyramidal neurons of APP/PS1-21 and WT mice; test: Chronic intraperitoneal treatment: whole-cell recording of sEPSCs of CA1 pyramidal neurons; assay type: in vivo, mouse
Method: The used model is a transgenic murine model obtained on a C57BL/6J genetic background which co-expresses the mutated human form of the amyloid precursor protein (mutated APP KM670/671NL) and of presenilin 1 (mutated PS1 L166P) under the control of the neural promoter Thy1. The presence of these two mutations allows increased production of the Aβ peptide from the 14th postnatal day. This leads to cerebral amyloidosis with the appearance of the first senile plaques around 8 postnatal weeks. This amyloid pathology is accompanied by inflammatory gliosis (microgliosis and astrogliosis detectable from 4 months), dendritic spine dystrophy and tau hyperphosphorylation (around 8 months). Cognitive behavioral disorders, and in particular of learning and spatial memory, are developed in around 6 to 8 months. This model was set-up and described by Rebecca Radde in 2006 (Radde et al., EMBO reports, 2006) and is widely used by the scientific community. This model is available in the animal facility of the Institut des Neurosciences de Grenoble and has been bred by the inventors since 2014. This solution is then diluted to 1 μg/μl in an isotonic solution containing 1% Pluronic F-127 and 0.9% NaCl. The animals are injected daily intraperitoneally at a dose of 5 mg/kg of body mass. Sterile 0.5 ml BD MicroFine syringes with no dead volume, equipped with a 30G (0.3 mm) needle are used for the injections. The carrier (10% DMSO, 1% Pluronic F-127, 0.9% NaCl) is used as a control and is also injected daily, according to the same procedure, into the WT and APP/PS1 control animals (carrier groups). The injection is started from the 14th postnatal day (appearance of the expression of the Thy1gene promoter in the hippocampus, triggering the overexpression of Aβ in the APP/PS1-21 murine model) Coronal sections of the hippocampus (thickness 300 μm) were prepared from APP/PS1-21 transgenic mice (1 month and 3 months old) or from WT mice from the same litter. The mice were sacrificed by decerebration and decapitation. The brain was quickly removed and sectioned in ice-cold ACSF containing (in mM) : 2.5 KCl, 7 MgCl2, 0.5 CaCl2, 1.2 NaHPO4, 25 NaHCO3, 11D-glucose and 234 sucrose bubbled with 95% of O2 and 5% of CO2 with a V[…] vibratome (Leica, Germany). The sections containing the hippocampus were placed in ACSF containing (in mM) : 126 NaCl, 2.5 KCl, 1.2 MgCl2, 2.5 CaCl2, 1.2 NaH2PO4 bubbled with 95% of O2 and 5% of CO2 and supplemented with 1 mM of sodium pyruvate at room temperature for a recovery period. Whole-cell recordings were performed on visually identified CA1 pyramidal neuron somas. The patch pipettes (4-6 MΩ) were filled with an internal solution containing (in mM): 105 K-gluconate, 30 KCL, 10 phosphocreatine, 10 HEPES, 4 ATP-Mg, 0.3 GTP-Tris, 0.3 EGTA, adjusted to pH 7.2 with KOH. Spontaneously excitatory postsynaptic currents (sEPSCs) were collected at a membrane holding potential of -60 mV which is close to the GABA reversal potential. All recordings were made at room temperature (22-24° C.) and only a single neuron was studied per section. The sEPSCs and their kinetics were analyzed, after a stabilization period of 10 minutes, 5 minutes from the recordings. Access resistance was constantly monitored and recordings were excluded from this study when this parameter varied more than 20% during the experiment. Recordings were analyzed using the Clampfit module of pClamp8 software (Molecular Devices, USA) with a single one at 20 pA to exclude miniature sEPSCs.

[3] = APP/PS1-21 mice, 3 months, 5 mg/kg i.p. from 14th postnatal day
[4] = WT mice, 3 months, chronic treatment 5 mg/kg i.p.

## CC(C)c1ccc(NC(=O)Cn2cnc3c2c(=O)n(C)c(=O)n3C)cc1 [HC030031, 2-(1,3-Dimethyl-2,6-dioxo-1,2,3,6-tetrahydro-7H-purin-7-yl)-N-(4-isopropylphenyl)acetamide]
[1]
  astrocyte calcium hyperactivity: fully restored; also recorded: inhibited
[2]; 1-month old mice, 5 mg/kg i.p. daily from 14th postnatal day
  sEPSC amplitude: no impact
[2]; [3]
  amplitude of sEPSCs: 33.4±1.4 pA
  frequency of sEPSCs: 0.10±0.01 Hz
[2]; APP/PS1-21 transgenic mice, 1 month, 5 mg/kg i.p. daily from 14th postnatal day
  frequency of sEPSCs: 0.10±0.02 Hz
[2]; WT litter mice, 1 month, 5 mg/kg i.p. daily from 14th postnatal day
  frequency of sEPSCs: 0.10±0.04 Hz
[2]; [4]
  amplitude of the sEPSCs: no effect
  frequency of the sEPSCs: no effect

Reference: patent publication US20230372350A1, “ASTROCYTIC TRPA1 CHANNEL INHIBITION AS A NOVEL NEUROPROTECTIVE THERAPEUTIC TARGET IN THE PRODROMAL PHASES OF ALZHEIMER'S DISEASE” (priority 2020, published 2023)
